Experimental data: ChEMBL document CHEMBL1201862, “PubChem BioAssay data set” (2004)
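Briefly, cells in 96-well plates were exposed to five compound concentrations for 48 h, and endpoints were estimated by linear interpolation. GI50: concentration for 50% inhibition of growth.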 Activity calls are given as the source filed them. No stated cut-off is given here; in the data, active = GI50 up to about 1.1 µM and inactive = higher.

Columns and labels:
Assay in all cases: inhibition of tumour cell growth, NCI panel, 48 h
RPMI-8226 = test system: RPMI-8226
UO-31 = test system: UO-31
HOP-62 = test system: HOP-62
T47D = test system: T47D
UACC-62 = test system: UACC-62
NCI-H460 = test system: NCI-H460
SF-539 = test system: SF-539
OVCAR-4 = test system: OVCAR-4
786-0 = test system: 786-0
PC-3 = test system: PC-3
A549 = test system: A549
MDA-N = test system: MDA-N
UACC-257 = test system: UACC-257
RXF 393 = test system: RXF 393
SK-MEL-28 = test system: SK-MEL-28
COLO 205 = test system: COLO 205
KM12 = test system: KM12
MDA-MB-435 = test system: MDA-MB-435
SNB-75 = test system: SNB-75
IGROV-1 = test system: IGROV-1

| SMILES | GI50 (RPMI-8226) | GI50 (UO-31) | GI50 (HOP-62) | GI50 (T47D) | GI50 (UACC-62) | GI50 (NCI-H460) | GI50 (SF-539) | GI50 (OVCAR-4) | GI50 (786-0) | GI50 (PC-3) | GI50 (A549) | GI50 (MDA-N) | GI50 (UACC-257) | GI50 (RXF 393) | GI50 (SK-MEL-28) | GI50 (COLO 205) | GI50 (KM12) | GI50 (MDA-MB-435) | GI50 (SNB-75) | GI50 (IGROV-1) |
| --- | --- | --- | --- | --- | --- | --- | --- | --- | --- | --- | --- | --- | --- | --- | --- | --- | --- | --- | --- | --- |
| CCOC(=O)c1cc2c(=Cc3ccc(N(C)C)cc3)c3ccccc3n2[n+]1C | 0.301 µM (active) | 6.12 µM (inactive) | < 0.01 µM (active) | 3.12 µM (inactive) | 1.33 µM (inactive) | 2.44 µM (inactive) | 0.577 µM (active) | 3.1 µM (inactive) | 1.93 µM (inactive) | 0.574 µM (active) | 3.71 µM (inactive) | 1.23 µM (inactive) | 1.57 µM (inactive) | 1.63 µM (inactive) | 1.53 µM (inactive) | 0.309 µM (active) | – | – | – | – |
| C[C@H](c1ccccc1)N1C(=O)[C@@H](OCc2ccccc2)[C@H]1[C@H](COC(=O)COCc1ccccc1)OCc1ccccc1 | 27.9 µM (inactive) | 7.69 µM (inactive) | > 100 µM (inactive) | – | > 100 µM (inactive) | – | – | – | > 100 µM (inactive) | 77.4 µM (inactive) | > 100 µM (inactive) | > 100 µM (inactive) | – | – | > 100 µM (inactive) | > 100 µM (inactive) | > 100 µM (inactive) | 54.1 µM (inactive) | 9.08 µM (inactive) | > 100 µM (inactive) |
| CCCCC(CCCC)=NNC(=S)SC | – | 24.7 µM (inactive) | 40.6 µM (inactive) | 20 µM (inactive) | 22 µM (inactive) | 30.3 µM (inactive) | 26.2 µM (inactive) | 18.9 µM (inactive) | 34.8 µM (inactive) | 40.1 µM (inactive) | 26.1 µM (inactive) | – | 24.9 µM (inactive) | 65.3 µM (inactive) | 37.2 µM (inactive) | 36.4 µM (inactive) | – | 17.9 µM (inactive) | 27.5 µM (inactive) | – |
| CCN1C(=O)c2ccccc2C1(O)c1ccc(Cl)cc1 (configuration not stated) | 61.9 µM (inactive) | 53.5 µM (inactive) | 78 µM (inactive) | 17.7 µM (inactive) | 79.1 µM (inactive) | 89.7 µM (inactive) | > 100 µM (inactive) | > 100 µM (inactive) | 76.9 µM (inactive) | 24.7 µM (inactive) | 25 µM (inactive) | > 100 µM (inactive) | 75.5 µM (inactive) | – | 94 µM (inactive) | 35.6 µM (inactive) | 46 µM (inactive) | 83.2 µM (inactive) | > 10 µM (inactive) | 29.1 µM (inactive) |
| COc1cccc(C2c3cc4c(cc3OC3COC(=O)C32)OCO4)c1OC (configuration not stated) | – | > 100 µM (inactive) | 61.1 µM (inactive) | – | 68.2 µM (inactive) | > 100 µM (inactive) | > 100 µM (inactive) | 64.6 µM (inactive) | > 100 µM (inactive) | > 100 µM (inactive) | > 100 µM (inactive) | 3.93 µM (inactive) | > 100 µM (inactive) | 83.4 µM (inactive) | > 100 µM (inactive) | > 100 µM (inactive) | > 100 µM (inactive) | – | 83.9 µM (inactive) | > 100 µM (inactive) |
| C=C(C)CCC1CCCCC(CN(C)C)C1=O (configuration not stated) | > 100 µM (inactive) | > 100 µM (inactive) | > 100 µM (inactive) | > 100 µM (inactive) | > 100 µM (inactive) | > 100 µM (inactive) | > 100 µM (inactive) | > 100 µM (inactive) | > 100 µM (inactive) | > 100 µM (inactive) | > 100 µM (inactive) | > 100 µM (inactive) | > 100 µM (inactive) | – | > 100 µM (inactive) | > 100 µM (inactive) | > 100 µM (inactive) | > 100 µM (inactive) | > 100 µM (inactive) | > 100 µM (inactive) |
| Cc1ccc(C(=O)OC[C@H]2CC[C@@H](n3cc(N(C)C4CCCCC4)c(=O)[nH]c3=O)O2)cc1 | 31.4 µM (inactive) | 13.9 µM (inactive) | 20.6 µM (inactive) | – | 29.7 µM (inactive) | 32.7 µM (inactive) | 23.8 µM (inactive) | 30.9 µM (inactive) | 28.1 µM (inactive) | 29.4 µM (inactive) | 28.7 µM (inactive) | 23.7 µM (inactive) | 32.7 µM (inactive) | 16.7 µM (inactive) | 53.1 µM (inactive) | 19.1 µM (inactive) | 19.6 µM (inactive) | 65.2 µM (inactive) | – | 33.4 µM (inactive) |
| C=C1C(=O)O[C@H]2C1C[C@@H](O)[C@@]1(C)OC1CC[C@@]1(C)O[C@H]21 (some centres not stated) | 8.95 µM (inactive) | 17 µM (inactive) | – | – | 15.3 µM (inactive) | 57.9 µM (inactive) | – | 13.9 µM (inactive) | 22.1 µM (inactive) | 27.2 µM (inactive) | > 100 µM (inactive) | – | 19.5 µM (inactive) | 17.9 µM (inactive) | 21.1 µM (inactive) | 11.6 µM (inactive) | 20.6 µM (inactive) | 21 µM (inactive) | 74.1 µM (inactive) | > 10 µM (inactive) |
| CCOP(=O)(OCC)C1CC(O)C(=O)N1 (configuration not stated) | > 100 µM (inactive) | > 100 µM (inactive) | > 100 µM (inactive) | – | > 100 µM (inactive) | – | – | > 100 µM (inactive) | > 100 µM (inactive) | > 100 µM (inactive) | > 100 µM (inactive) | > 100 µM (inactive) | > 100 µM (inactive) | – | > 100 µM (inactive) | > 100 µM (inactive) | > 100 µM (inactive) | > 100 µM (inactive) | > 100 µM (inactive) | > 100 µM (inactive) |
| CSC1=N/C(=C\c2cccs2)C(=O)N1CN1CCOCC1 | 20 µM (inactive) | 39.9 µM (inactive) | 95.7 µM (inactive) | – | 42.4 µM (inactive) | – | – | 30.6 µM (inactive) | 44.5 µM (inactive) | 50.8 µM (inactive) | > 100 µM (inactive) | 59 µM (inactive) | – | – | > 100 µM (inactive) | 45.5 µM (inactive) | 57.7 µM (inactive) | > 100 µM (inactive) | 37.5 µM (inactive) | 41.5 µM (inactive) |
| CC(C)=C=CC(C)(C)NS(=O)(=O)NC(C)(C)C=C=C(C)C | – | – | > 100 µM (inactive) | 15.7 µM (inactive) | > 100 µM (inactive) | 80.9 µM (inactive) | > 100 µM (inactive) | > 100 µM (inactive) | > 100 µM (inactive) | 81.1 µM (inactive) | 42.1 µM (inactive) | > 100 µM (inactive) | > 100 µM (inactive) | – | > 100 µM (inactive) | > 100 µM (inactive) | > 100 µM (inactive) | > 100 µM (inactive) | 47.4 µM (inactive) | > 100 µM (inactive) |
| C[N+](C)(C)CC1CCC/C1=N/O (configuration not stated) | 25.7 µM (inactive) | > 100 µM (inactive) | > 100 µM (inactive) | – | > 100 µM (inactive) | 50.4 µM (inactive) | > 100 µM (inactive) | > 100 µM (inactive) | 22.2 µM (inactive) | – | > 100 µM (inactive) | – | 43 µM (inactive) | 37.1 µM (inactive) | > 100 µM (inactive) | 21.5 µM (inactive) | > 100 µM (inactive) | – | > 100 µM (inactive) | > 100 µM (inactive) |
| CNC(=O)C1(N)c2ccccc2C=Cc2ccccc21 | > 100 µM (inactive) | > 100 µM (inactive) | > 100 µM (inactive) | > 100 µM (inactive) | > 100 µM (inactive) | – | > 100 µM (inactive) | > 100 µM (inactive) | > 100 µM (inactive) | > 100 µM (inactive) | > 100 µM (inactive) | > 100 µM (inactive) | – | – | > 100 µM (inactive) | > 100 µM (inactive) | > 100 µM (inactive) | > 100 µM (inactive) | – | > 100 µM (inactive) |
| CCn1c(=O)c2c3ccc(O)cc3oc2c2ccc(O)cc21 | – | 26.7 µM (inactive) | 34.4 µM (inactive) | 18.1 µM (inactive) | 31.1 µM (inactive) | 34.6 µM (inactive) | 34.9 µM (inactive) | 62.4 µM (inactive) | 63.4 µM (inactive) | 42.6 µM (inactive) | 41.1 µM (inactive) | 37.5 µM (inactive) | > 100 µM (inactive) | 53.7 µM (inactive) | 49.1 µM (inactive) | 44.7 µM (inactive) | 49.1 µM (inactive) | 33.7 µM (inactive) | 29.9 µM (inactive) | 40.4 µM (inactive) |
| CCOC(=O)c1sc(N/N=C2\NC(=O)/C(=C/c3ccc([N+](=O)[O-])cc3)S2)nc1C | – | 16.2 µM (inactive) | 17.2 µM (inactive) | 15.1 µM (inactive) | 22.2 µM (inactive) | 21.5 µM (inactive) | 18.7 µM (inactive) | 26.1 µM (inactive) | 16.7 µM (inactive) | 25.6 µM (inactive) | 28.3 µM (inactive) | 25.9 µM (inactive) | 15.6 µM (inactive) | 26.8 µM (inactive) | 32.1 µM (inactive) | 25.1 µM (inactive) | 15.5 µM (inactive) | 23.8 µM (inactive) | 25.8 µM (inactive) | 14 µM (inactive) |
| CC(=O)OCC1=C(C)C(OC(=O)C(OC(C)=O)[C@@H](NC(=O)c2ccccc2)c2ccccc2)CCC1(C)C (some centres not stated) | > 100 µM (inactive) | > 100 µM (inactive) | > 100 µM (inactive) | > 100 µM (inactive) | > 100 µM (inactive) | > 100 µM (inactive) | > 100 µM (inactive) | > 100 µM (inactive) | > 100 µM (inactive) | – | > 100 µM (inactive) | > 100 µM (inactive) | > 100 µM (inactive) | > 100 µM (inactive) | > 100 µM (inactive) | > 100 µM (inactive) | > 100 µM (inactive) | > 100 µM (inactive) | 9.86 µM (inactive) | > 100 µM (inactive) |
